Reference: US20130065964A1, “PERITONEAL DIALYSIS SOLUTION” (UNIVERSIDAD DE CASTILLA LA MANCHA, priority 2010, published 2013)

Assays:
Assay in all cases: Real-time RT-PCR in PMCs from dialysed rats
Format in all cases: in vivo, rat
[1] = tested on: Collagen III; settings: peritoneal cells from rats dialysed four weeks, aliskiren 0.1 or 1 mg/Kg, FIG. 18
Description: (§1) The rats were exposed daily for four weeks to carrier (saline serum), 1.5% PDF, 2.3% PDF or 4.5% PDF supplemented by carrier, 0.1 mg/Kg aliskiren or 1 mg/Kg aliskiren. The data is expressed as mean±SEM, n=6 rats per group. * p<0.05, compared to the group treated with carrier in the absence of aliskiren (carrier). # p<0.05, compared to their respective groups treated with PDFs in the absence of aliskiren.
(§2) For in vivo studies, 78 female rats of the Sprague-Dawley female strain weighing 200-240 g (Charles River Breeding Laboratories) were used: fifty-four rats were assigned to the group of animals which had been administered high-glucose peritoneal dialysis solutions (PDF), which were divided into three different subgroups with eighteen rats each which were administered, respectively, three PDFs having different glucose concentrations (Fresenius Medical Car, Bad Homburg, Germany). Additionally, eighteen rats were administered a carrier (saline serum) and another six rats were used as a control group (not dialysed). […]
(§3) At the end of the experimental period (four weeks), 30 ml of a commercial PDF with 2.3% glucose (Fresenius Medical Car, Bad Homburg, Germany) was administered intraperitoneally using a 22G needle. […] Their body weight was measured at the start and end of the experimental period. […]
(§4) The blood and dialysate samples were centrifuged and stored at −20° C. The concentrations of creatinine and glucose in the serum and dialysate were measured using enzymatic methods. The peritoneal transport of solutes was calculated, on one hand, as the glucose concentration in the dialysate 2 hours after the PET relative to the initial glucose concentration in the PDF (D2/D0 glucose) and, on the other, as the dialysate/plasma creatinine concentration ratio (D2/P2 creatinine) 2 h after the PET. […]
(§5) The RNA expression was evaluated by real-time RT-PCR in PMCs. […] RNA quality and concentration was evaluated by spectrophotometry (Infinite 200, Tecan, Salzburg, Austria) using 1 μl of the RNA sample. […]

[2] = tested on: Bcl-2; settings: peritoneal cells from rats dialysed four weeks, aliskiren 0.1 or 1 mg/Kg, FIG. 16
Description: as §1, §2, §3, §4, §5

[3] = tested on: BAX; settings: peritoneal cells from rats dialysed four weeks, aliskiren 0.1 or 1 mg/Kg, FIG. 15
Description: as §1, §2, §3, §4, §5

[4] = tested on: fibronectin; settings: peritoneal cells from rats dialysed four weeks, aliskiren 0.1 or 1 mg/Kg, FIG. 17
Description: as §1, with “rats per group.* p<0.05, compared” for “rats per group. * p<0.05, compared”, “of aliskiren. […]” for “of aliskiren.”
as §3, §4, §5

COCCCOc1cc(C[C@@H](C[C@H](N)[C@@H](O)C[C@H](C(=O)NCC(C)(C)C(N)=O)C(C)C)C(C)C)ccc1OC [aliskiren]
RNAm expression of collagen III [1]: increased
RNAm expression of anti-apoptotic protein Bcl-2 [2]: increased
RNAm expression of pro-apoptotic protein Bax [3]: reduced
RNAm expression of fibronectin [4]: increased
